Where two headings read alike, the source gives them in different places. Ends that are not written are not given here. Peptide text beside a SMILES is read from it.

Results on four molecules are retold here after article PMC5030359, “Cathelicidin Antimicrobial Peptides with Reduced Activation of Toll-Like Receptor Signaling Have Potent Bactericidal Activity against Colistin-Resistant Bacteria” (mBio, 2016).

For one test, the system named is TLR3. In words: TLR3 signaling: IL-6 ELISA in BEAS-2B cells treated with poly(I·C). Type of test: cell-based, human. Particulars: poly(I·C) […], peptide 2 µM, ELISA, control cells = 100%, mean (SD) of minimum three assays. As for the experimental part:
(§1) Eight cathelicidins produced by eight mammals were selected for an initial examination (Fig. 1A). […] However, the number of charged residues and the lengths of the disordered residues differed (Fig. 1B). The peptides were added to BEAS-2B cells, a human lung epithelial cell line that expresses multiple TLRs and can release proinflammatory cytokines in response to their activation and the enhancement of cytokine release by LL-37 ([15]). BEAS-2B cells treated with the TLR3 agonist poly(I⋅C) and 2 µM LL-37 increased interleukin 6 (IL-6) production by threefold. All of the nonhuman cathelicidins tested had lower TLR3 signaling compared to LL-37 (Fig. 1B). The lack of TLR3 signaling by the nonhuman cathelicidins was due to the inability to use the formyl peptide receptor-like receptor 1 to endocytose the double-stranded RNA (dsRNA)−LL-37 complex and deliver the poly(I⋅C) to TLR3 in endosomes ([17]) (see Fig. S1 in the supplemental material). All of the nonhuman cathelicidins also had reduced activation of TLR9 compared to LL-37 (Fig. 1B).
(§2) FIG 1 Cathelicidins from animals have distinct abilities to act on Toll-like receptor signaling. (A) A phylogenetic relationship of cathelicidins from mammals. The figure is derived from results of Zanetti et al. (12). (B) Names, lengths, and sequences of cathelicidin peptides and their ability to affect Toll-like receptor signaling. The peptide lengths are shown in the numbers of amino acids (AAs). The residues predicted to form an α-helix are underlined with an arrow. The basic, acidic, and aromatic residues are colored blue, red, and green, respectively. TLR signaling was assessed by the amount of IL-6 cytokine produced in BEAS-2B cells. IL-6 levels were quantified using enzyme-linked immunosorbent assay (ELISA), and the level of IL-6 in the control cells is normalized to 100%. The peptides were added to the cells at a final concentration of 2 μM. Each result is the mean of a minimum of three independent assays, and the standard deviations (SD) are shown in parentheses.
(§3) The concentration of IL-6 secreted into the cell medium was quantified using the OptEIA kit (BD Biosciences, San Jose, CA). A typical assay used 1 × 10^4 BEAS-2B cells/well grown for 24 h in flat-bottom 96-well plates. Poly(I⋅C) was added to a final concentration of 0.13 µg/ml for 24 h. ODN2006 was added to 0.5 nM. Lipopolysaccharides were used at 0.5 µg/ml. All data shown are the means and ranges of 1 standard error for a minimum of three independent samples. Data sets were compared using the Student t test calculated with GraphPad Prism 5 software.

The next test deals with TLR9. In words: TLR9 signaling: IL-6 ELISA in BEAS-2B cells treated with CpG DNA ODN2006. Type of test: cell-based, human. Particulars: ODN2006 0.5 nM, peptide 2 µM, control cells = 100%, mean (SD) of minimum three assays. As for the experimental part: as §1, §2, §3
The next test relates to TLR4. The test can be described thus: TLR4 signaling: IL-6 ELISA in BEAS-2B cells treated with LPS. It is filed as cell-based, human. As to conditions: BEAS-2B cells, LPS 0.5 µg/ml, peptide 2 µM, ELISA, control cells = 100%; mean (SD) of minimum three assays.
Text: as §2
LL-37 at 2 µM final concentration reduced IL-6 production to approximately half that of the untreated cells (Fig. 1B).
as §3

In a further test the test system is Enterobacter cloacae. Particulars: strains with MIC of 16 µg/ml or less / strains tested.
The test system of another test is Klebsiella pneumoniae. As to conditions: strains with MIC of 16 µg/ml or less / strains tested.
Another test has as its system Serratia marcescens. Particulars: strains with MIC of 16 µg/ml or less / strains tested.

Method for 19 Gram-negative strains: (A) Sequences of the cathelicidins, the numbers of bacterial strains killed, and hRBC lysis by the cathelicidins. […] The bacterial species tested are Klebsiella pneumoniae (K. p.), Serratia marcescens (S. m.), Enterobacter cloacae (E. cl.), Escherichia coli (E. c.), and Pseudomonas aeruginosa (P. a.). MICs were determined by the microdilution assay. […] The results are the median values of at least three independent assays.
We tested a panel of cathelicidins for inhibiting growth of 19 Gram-negative strains from the family Enterobacteriaceae and the nonfermentative bacteria. The species tested were Enterobacter cloacae ([2]), Escherichia coli ([5]), Klebsiella pneumoniae ([4]), Pseudomonas aeruginosa ([4]), and Serratia marcescens ([4]). All of the strains selected have been characterized for their antibiotic resistance profiles.
(§4) Antimicrobial activity was determined using the broth microdilution method based on the guidelines of the Clinical and Laboratory Standards Institute (CLSI) ([39]), using cation-adjusted Mueller-Hinton broth (CAMHB) as the testing medium. Reference Gram-positive and Gram-negative bacteria were tested, including both enteric and Pseudomonas aeruginosa strains. Each MIC was determined in at least three independent assays.
Method for Enterobacter cloacae: (§5) The bacterial species tested are Klebsiella pneumoniae (K. p.), Serratia marcescens (S. m.), Enterobacter cloacae (E. cl.), Escherichia coli (E. c.), and Pseudomonas aeruginosa (P. a.). MICs were determined by the microdilution assay. […] The results are the median values of at least three independent assays.
as §4
Method for Escherichia coli: as §5, §4
Method for Klebsiella pneumoniae: as §5, §4
Method for Pseudomonas aeruginosa: as §5, §4
Method for Serratia marcescens: as §5, §4

CAP-18: the “% IL-6 produced compared to controls (SD) TLR3” value (“% IL-6 produced … (SD) TLR3” for short) with TLR3 is 234(30) %. Moreover, the “% IL-6 produced compared to controls (SD) TLR9” value (from here on “% IL-6 produced … (SD) TLR9”) in the test on TLR9 was 121(23) %. Also, the “% IL-6 produced compared to controls (SD) TLR4” value (from here on “% IL-6 produced … (SD) TLR4”) in the test with TLR4 was 42(13) %. Moreover, the “# strains inhibited at 16 µg/ml peptide E. cl.” value in the test on Enterobacter cloacae is reported as 1/2. Moreover, in the test on Escherichia coli, the “# strains inhibited at 16 µg/ml peptide E. c.” value is 3/6. Also, the “# strains inhibited at 16 µg/ml peptide K. p.” value in the test with Klebsiella pneumoniae is 4/4. Besides, the “# strains inhibited at 16 µg/ml peptide P. a.” value in the test on Pseudomonas aeruginosa is 3/4. Further, the “# strains inhibited at 16 µg/ml peptide S. m.” value with Serratia marcescens is 0/3. Further, the “No. of strains inhibited at 16 µg/ml/total no. of strains” value (from here on “No. of strains inhibited”) in the test with 19 Gram-negative strains is 11/19.

Take `CC[C@H](C)[C@H](NC(=O)[C@H](CCCCN)NC(=O)[C@H](CCC(=O)O)NC(=O)[C@H](CCCCN)NC(=O)[C@@H](NC(=O)[C@H](CCCCN)NC(=O)[C@H](CCCNC(=N)N)NC(=O)[C@H](Cc1ccccc1)NC(=O)[C@H](Cc1ccccc1)NC(=O)[C@H](CC(N)=O)NC(=O)CNC(=O)[C@H](CC(C)C)NC(=O)[C@@H](N)CCCNC(=N)N)C(C)C)C(=O)NCC(=O)NCC(=O)NCC(=O)N[C@@H](CC(C)C)C(=O)N[C@@H](CCCCN)C(=O)N[C@@H](CCCCN)C(=O)N[C@H](C(=O)NCC(=O)N[C@@H](CCC(N)=O)C(=O)N[C@@H](CCCCN)C(=O)N[C@H](C(=O)N[C@@H](CCCCN)C(=O)N[C@@H](CC(=O)O)C(=O)N[C@@H](Cc1ccccc1)C(=O)N[C@@H](CC(C)C)C(=O)NCC(=O)N[C@@H](CC(N)=O)C(=O)N[C@@H](CC(C)C)C(=O)N[C@H](C(=O)N1CCC[C@H]1C(=O)N[C@@H](CCCNC(=N)N)C(=O)N[C@H](C(=O)N[C@@H](C)C(=O)N[C@@H](CO)C(=O)O)[C@@H](C)O)C(C)C)[C@@H](C)CC)C(C)C` [RL-37] (H-RLGNFFRKVKEKIGGGLKKVGQKIKDFLGNLVPRTAS-OH; N-terminus and C-terminus assumed): in the test on TLR3, the “% IL-6 produced … (SD) TLR3” value is reported as 102(18) %. For the same molecule, the “% IL-6 produced … (SD) TLR9” value in the test with TLR9 is recorded as 93(19) %. The “% IL-6 produced … (SD) TLR4” value in the test on TLR4 was 50(5) %. Besides, the “# strains inhibited at 16 µg/ml peptide E. cl.” value in the test on Enterobacter cloacae was 1/2. Besides, in the test on Escherichia coli, the “# strains inhibited at 16 µg/ml peptide E. c.” value was 2/6. The “# strains inhibited at 16 µg/ml peptide K. p.” value in the test on Klebsiella pneumoniae is 3/4. The “# strains inhibited at 16 µg/ml peptide P. a.” value in the test with Pseudomonas aeruginosa was 1/4. Besides, the “# strains inhibited at 16 µg/ml peptide S. m.” value with Serratia marcescens was 0/3. Further, the “No. of strains inhibited” value in the test with 19 Gram-negative strains was 7/19.

Turning to CRAMP, in the test on TLR3, the “% IL-6 produced … (SD) TLR3” value was 57(10) %. For the same molecule, the “% IL-6 produced … (SD) TLR9” value in the test on TLR9 was 41(7) %. The “% IL-6 produced … (SD) TLR4” value with TLR4 was 41(7) %. Also, the “# strains inhibited at 16 µg/ml peptide E. cl.” value in the test with Enterobacter cloacae is recorded as 1/2. Moreover, the “# strains inhibited at 16 µg/ml peptide E. c.” value in the test with Escherichia coli is recorded as 1/6. Moreover, the “# strains inhibited at 16 µg/ml peptide K. p.” value with Klebsiella pneumoniae is listed as 0/4. In addition, the “# strains inhibited at 16 µg/ml peptide P. a.” value in the test with Pseudomonas aeruginosa is on record as 0/4. Moreover, in the test on Serratia marcescens, the “# strains inhibited at 16 µg/ml peptide S. m.” value was 0/3. In addition, the “No. of strains inhibited” value with 19 Gram-negative strains was 2/19.

“GLRKKFRKTRKRIQKLGRKIGKTGRKVWKAWREYGQIPYPCRI [CAP-11]”: the “% IL-6 produced … (SD) TLR3” value with TLR3 is on record as 148(8) %. Besides, the “% IL-6 produced … (SD) TLR9” value in the test with TLR9 is 79(10) %. For the same molecule, the “% IL-6 produced … (SD) TLR4” value in the test on TLR4 is listed as 9(4) %. For the same molecule, in the test with Enterobacter cloacae, the “# strains inhibited at 16 µg/ml peptide E. cl.” value is recorded as 2/2. The “# strains inhibited at 16 µg/ml peptide E. c.” value in the test on Escherichia coli is listed as 5/6. In addition, the “# strains inhibited at 16 µg/ml peptide K. p.” value in the test on Klebsiella pneumoniae is listed as 4/4. Moreover, the “# strains inhibited at 16 µg/ml peptide P. a.” value in the test on Pseudomonas aeruginosa was 4/4. In addition, in the test with Serratia marcescens, the “# strains inhibited at 16 µg/ml peptide S. m.” value is recorded as 1/3. The “No. of strains inhibited” value in the test on 19 Gram-negative strains (19 Gram-negative strains, MIC of 16 µg/ml or less) amounted to 16.
